For this test, the target named is Human immunodeficiency virus type 1 integrase (Human immunodeficiency virus 1, UniProt Q7ZJM1). Briefly: Inhibition of HIV1 recombinant integrase expressed in Escherichia coli.

Each structure is given as a SMILES string. Some results are limits rather than exact numbers.

Sequence of Human immunodeficiency virus type 1 integrase (Q7ZJM1 whole entry): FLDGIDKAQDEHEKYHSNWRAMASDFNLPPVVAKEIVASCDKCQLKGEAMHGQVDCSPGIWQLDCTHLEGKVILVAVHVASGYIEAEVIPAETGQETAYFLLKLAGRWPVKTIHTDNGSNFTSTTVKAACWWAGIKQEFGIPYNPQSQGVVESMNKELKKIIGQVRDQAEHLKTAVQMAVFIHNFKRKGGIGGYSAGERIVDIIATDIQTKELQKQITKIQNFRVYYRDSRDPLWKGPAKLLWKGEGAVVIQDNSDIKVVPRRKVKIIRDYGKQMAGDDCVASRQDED

Broadly, the IC50 is the concentration needed to halve the response being measured. As for `O=C(OC[C@H]1O[C@@H](Oc2c(-c3ccc(O)c(O)c3)oc3cc(O)cc(O)c3c2=O)[C@H](OC(=O)c2cc(O)c(O)c(O)c2)[C@@H](O)[C@H]1O)c1cc(O)c(O)c(O)c1`, the IC50 was 31.5 µM.
In the case of `O=C(OC[C@H]1O[C@@H](OC(=O)c2cc(O)c(O)c(O)c2)[C@H](OC(=O)c2cc(O)c(O)c(O)c2)[C@@H](O)[C@@H]1O)c1cc(O)c(O)c(O)c1` it was 44.5 µM; in that of `O=C(O[C@H]1[C@H](Oc2c(-c3ccc(O)c(O)c3)oc3cc(O)cc(O)c3c2=O)OC[C@H](O)[C@@H]1O)c1cc(O)c(O)c(O)c1`, 30.9 µM.
Regarding `O=C(O[C@H]1[C@H](Oc2c(-c3ccc(O)c(O)c3)oc3cc(O)cc(O)c3c2=O)O[C@H](CO)[C@H](O)[C@@H]1O)c1cc(O)c(O)c(O)c1`, the IC50 is 45.3 µM.
`O=c1c(O[C@@H]2OC[C@H](O)[C@H](O)[C@H]2O)c(-c2ccc(O)cc2)oc2cc(O)cc(O)c12`: the IC50 was over 239 µM.
`COC(=O)c1cc(O)c(O)c(O)c1` [GALLIC ACID METHYL ESTER]: the IC50 was 155 µM.
For `O=c1c(O[C@@H]2O[C@H](CO)[C@H](O)[C@H](O)[C@H]2O)c(-c2ccc(O)c(O)c2)oc2cc(O)cc(O)c12` [HYPEROSIDE], the IC50 is 139 µM.
Regarding `O=C(OC[C@H]1O[C@@H](OC(=O)c2cc(O)c(O)c(O)c2)[C@H](OC(=O)c2cc(O)c(O)c(O)c2)[C@@H](OC(=O)c2cc(O)c(O)c(O)c2)[C@@H]1OC(=O)c1cc(O)c(O)c(O)c1)c1cc(O)c(O)c(O)c1` [PENTAGALLOYL GLUCOSE], the IC50 is 29.8 µM.
Regarding `C[C@@H]1O[C@@H](Oc2c(-c3ccc(O)c(O)c3)oc3cc(O)cc(O)c3c2=O)[C@H](O)[C@H](O)[C@H]1O` [QUERCITRIN], the IC50 was 168 µM.

For the origin of these results see ChEMBL document CHEMBL1159200, “A new flavonol glycoside gallate ester from Acer okamotoanum and its inhibitory activity against human immunodeficiency virus-1 (HIV-1) integrase” (J Nat Prod, 1998).
